Legend:
[1] = stability of the crystalline form over time; format: physicochemical
Protocol: In an embodiment, drying crystalline Form RT2 of Venetoclax may be carried out at temperatures and times sufficient to achieve desired quality of product. Drying may be carried out at about 30° C. or above at which crystalline form RT2 is stable and for any time period required for obtaining a desired quality, such as from about 5 minutes to 10 hours or longer. Crystalline form RT2 is stable for 3 months period or longer.

[2] = stability of the solid form under mechanical stress (grinding and milling); format: physicochemical
Text: (§1) The present application provides a stable amorphous form of Venetoclax devoid of the problems indicated in the prior art and suitable for powder handling and downstream processes.

[3] = stability of the solid form under hygroscopic conditions (higher relative humidity); format: physicochemical; settings: higher relative humidity conditions of more than 60% RH
Text: as §1

[4] = test system: tumor cells that overexpress BCL-2; settings: nonclinical studies; cited from earlier work

CC1(C)CCC(CN2CCN(c3ccc(C(=O)NS(=O)(=O)c4ccc(NCC5CCOCC5)c([N+](=O)[O-])c4)c(Oc4cnc5[nH]ccc5c4)c3)CC2)=C(c2ccc(Cl)cc2)C1 [Crystalline form RT2]
period for which the crystalline form is stable [1]: ≥ 3 months

CC1(C)CCC(CN2CCN(c3ccc(C(=O)NS(=O)(=O)c4ccc(NCC5CCOCC5)c([N+](=O)[O-])c4)c(Oc4cnc5[nH]ccc5c4)c3)CC2)=C(c2ccc(Cl)cc2)C1 [Amorphous form of Venetoclax]
stability under mechanical stress [2]: highly stable
stability under hygroscopic conditions [3]: stable

CC1(C)CCC(CN2CCN(c3ccc(C(=O)NS(=O)(=O)c4ccc(NCC5CCOCC5)c([N+](=O)[O-])c4)c(Oc4cnc5[nH]ccc5c4)c3)CC2)=C(c2ccc(Cl)cc2)C1 [Venetoclax]
cytotoxic activity [4]: demonstrated cytotoxic activity
